In brackets after ≈: the same amount, converted by molar mass. Like-named read-outs stand apart in the source and are kept apart here.
Experiments:
[1] = test system: M. tuberculosis H37Rv; experiment: Antimycobacterial activity: MIC by broth microdilution / Nitrate Reductase Assay; format: cell-based, Mycobacterium tuberculosis; settings: lowest concentration showing no colour change (NRA)
[2] = test system: AML-12 cell lines; experiment: Cytotoxicity MTT assay on AML-12 cell lines; format: cell-based; settings: for Cytotoxicity: AML-12 cell line, MTT, 24 hrs, test material 2-100 μg/ml; for Cytotoxicity (result in words): AML-12 cell lines, MTT assay
Experimental: The potent compounds 3j, 4e, 6a, 6f, 6g, 6i, and 6p were evaluated for cytotoxic effect on AML-12 cell lines using MTT assay, in a 96 well plate format. Cells were incubated in Dulbecco's Modified Eagle's Medium (DMEM) containing 10% fetal calf serum (FCS) with the test material (2-100 μg/ml) for 24 hrs. at 37° C. in CO2 incubator. After the completion of incubation 3-(4,5-dimethylthiazol-2-yl)-2,5-diphenyltetrazolium bromide (MTT) was added and cells were further incubated for 3 h at 37° C. in CO2 incubator. Formation of formazan salt by mitochondrial dehydrogenases, and was determined by Elisa reader at 565 nm (Multiskan Spectrum; Thermo Electron Corporation, USA). The percentage cytotoxicity was calculated with respect to the untreated cells.

[3] = test system: M. tuberculosis (H37Rv); experiment: In vivo efficacy in lungs of infected mice; design: species or system Swiss albino mice; settings: for In vivo activity (result in words) / Decrease of bacterial load in lung with late control (protections): mice; for In vivo activity (result in words): lung; for Decrease of bacterial load in lung with late control (protections): versus late control; for Log10 CFU/left Lung: infected female Swiss albino mice
[4] = test system: M. tuberculosis H37Rv; settings: closest benzothiazole compounds; cited from earlier work

SMILES	MIC [1]	Cytotoxicity [2]	Cytotoxicity (result in words) [2]	In vivo activity (result in words) ([3]; 25 mg/kg)	Decrease of bacterial load in lung with late control (protections) ([3]; 25 mg/kg)	Log10 CFU/left Lung ([3]; 25 mg/kg)	MIC [4]	also measured
O=C(Nc1ccc2nc(NC(=O)c3ccc(F)cc3F)sc2c1)c1ccc([N+](=O)[O-])o1 [Compound 6i, N2-{2-[(2,4-difluorobenzoyl)amino]-1,3-benzothiazol-6-yl}-5-nitrofuramide]	0.5 µg/mL (≈ 1.13 µM)	>100 µg/mL	no cytotoxicity	bacteriostatic activities	1.0	6.3 ± 0.37	–	–
O=C(Nc1nc2ccc(NC(=O)c3ccc([N+](=O)[O-])o3)cc2s1)c1ccc(F)cc1 [Compound 6f, N2-{2-[(4-fluorobenzoyl)amino]-1,3-benzothiazol-6-yl}-5-nitrofuramide]	0.5 µg/mL (≈ 1.17 µM)	>100 µg/mL	no cytotoxicity	bacteriostatic activities	1.0	6.0 ± 0.13	–	–
O=[N+]([O-])c1cc(CSc2nc3ccccc3s2)cc([N+](=O)[O-])c1	–	–	–	–	–	–	2 µg/mL (≈ 5.76 µM)	–
COC(=O)[C@H](NC(=O)c1cc(COc2ccc3nc(C)sc3c2)on1)c1ccccc1	–	–	–	–	–	–	1.9 µg/mL (≈ 4.34 µM)	–
CC(=NNC1CSC(c2ccc3c(c2)CCC3)=N1)c1ccc(C)cc1 (centres unmarked)	–	–	–	–	–	–	>6.5 µg/mL	–
O=C(Nc1nc2ccc(NC(=O)c3ccc([N+](=O)[O-])o3)cc2s1)c1ccc(Cl)cc1 [Compound 6g, N2-{2-[(4-chlorobenzoyl)amino]-1,3-benzothiazol-6-yl}-5-nitrofuramide]	0.5 µg/mL (≈ 1.13 µM)	>100 µg/mL	no cytotoxicity	bacteriostatic activities	1.0	6.1 ± 0.48	–	–
CO[C@H]1/C=C/O[C@@]2(C)Oc3c(C)c(O)c4c(O)c(c(/C=N/N5CCN(C)CC5)c(O)c4c3C2=O)NC(=O)/C(C)=C\C=C\[C@H](C)[C@H](O)[C@@H](C)[C@@H](O)[C@@H](C)[C@H](OC(C)=O)[C@@H]1C [RMP, Rifampicin, reference compound]	–	–	–	–	–	–	–	MIC ([1]; Mycobacterium tuberculosis, H37RV, read-out: MIC): 0.25 µg/mL (≈ 0.304 µM); Log10 CFU/left Lung ([3]; 20 mg/kg): 2.0 ± 0.41
COC(=O)C(NC(=O)c1cc(COc2ccc3nc(C)sc3c2)on1)c1ccccc1 (centres unmarked)	–	–	–	–	–	–	1.4 µg/mL (≈ 3.2 µM)	–
Clc1ccccc1/C=N/c1nc2ccccc2s1	–	–	–	–	–	–	73 µg/mL (≈ 268 µM)	–
O=[N+]([O-])c1ccc(CSc2nc3ccccc3s2)c([N+](=O)[O-])c1	–	–	–	–	–	–	2 µg/mL (≈ 5.76 µM)	–
